Common to all, as to format: cell-based
For one experiment, the system named is SW480 colon cancer cells. The experiment is described as follows: Cell viability assay (CellTiter-Blue) in SW480 cells. Particulars: Homo sapiens, 96 h, four days, CellTiter-Blue, 10 μM to 0.0045 μM. An outline of the steps:
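SW480 cells (~2×10^3 per well) were exposed to compound for four days at 37 °C/5% CO2, using 8-point 1:3 dilutions from 10 μM to 0.0045 μM in duplicate. Viability was read by resazurin reduction (CellTiter-Blue, ~3 h, Ex 560/Em 590 nm). EC50 came from non-linear regression; above 10 μM, percent inhibition at 10 μM is given.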
(Alamar Blue is a resazurin reagent that responds to reducing activity.)

The subject of experiment [1] is primary human fibroblasts derived from IPF patients (LL29 cells) treated with TGF-β1. Nature of the experiment: Inhibition of the fibrotic process: αSMA staining in TGF-β1-treated LL29 fibroblasts. Particulars: Fibroblast, 96 h, LL29 fibroblasts treated with TGF-β1 (20 ng/mL), 4 days, Table 4. The essentials:
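IPF-derived LL29 fibroblasts in F12 with 1% FBS dosed with compound (11-point, 10 μM to 1.87 nM, 0.1% DMSO), then 20 ng/mL TGF-β1 after 1 h, and cultured 4 days at 37 °C. αSMA-positive cell fraction imaged after excluding SYTOX-positive cells, normalized to TGF-β1/DMSO wells; EC50 by non-linear regression, % inhibition at 10 μM if EC50 >10 μM.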

The subject of the next experiment is IL-6 (THP-1 cells). The experiment is described as follows: IL-6 inhibition in LPS-stimulated THP-1 monocytes (HTRF). Particulars: Homo sapiens, 500 ng/mL LPS, IL-6 HTRF, Table 6. An outline of the steps:
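THP-1 cells in 1% FBS pre-incubated 2 h with compound (10-point 1:3 series from 10 μM, 0.1% DMSO), then stimulated with 500 ng/mL LPS for 22 h at 37 °C. IL-6 measured by HTRF 665/620 ratio, normalized to DMSO; EC50 by four-parameter fit, or % inhibition at 10 μM when EC50 >10 μM.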
On the technique in general: TR-FRET usually uses a lanthanide donor and a delayed reading to cut background.

Regarding `Oc1cncc(-c2ccc3[nH]nc(-c4nc5c(N6CCCCC6)cccc5[nH]4)c3n2)c1` [Compound 613, 5-(3-(4-(Piperidin-1-yl)-1H-benzo[d]imidazol-2-yl)-1H-pyrazolo[4,3-b]pyridin-5-yl)pyridin-3-ol], the EC50 in the experiment on SW480 colon cancer cells is 2.71 µM; in experiment [1], 3.32 µM; in the experiment with IL-6 (THP-1 cells), 6.77 µM.
For `CN1CCN(c2cccc3[nH]c(-c4n[nH]c5ccc(-c6cncc(OC7CCCCC7)c6)nc45)nc23)CC1` [Compound 639, 5-(5-(Cyclohexyloxy)pyridin-3-yl)-3-(4-(4-methylpiperazin-1-yl)-1H-benzo [d]imidazol-2-yl)-1H-pyrazolo[4,3-b]pyridine], in that order: 0.933 µM, 1.36 µM and 4.9 µM.
For the compound `CN1CCN(c2cccc3[nH]c(-c4n[nH]c5ccc(-c6cncc(OCc7ccccc7)c6)nc45)nc23)CC1` [Compound 646, 5-(5-(Benzyloxy)pyridin-3-yl)-3-(4-(4-methylpiperazin-1-yl)-1H-benzo[d]imidazol-2-yl)-1H-pyrazolo[4,3-b]pyridine], the results for the EC50 (in the experiment on SW480 colon cancer cells; in experiment [1]; with IL-6 (THP-1 cells)) were 1.04 µM, 1.46 µM and 3.34 µM, respectively.

Usually EC50 stands for the concentration giving half of the maximal effect. A lower EC50 goes with an effect from little substance.
